# Results as given in ChEMBL document CHEMBL3414443, “Truncated structures used in search for new lead compounds and in a retrospective analysis of thienopyrimidine-based EGFR inhibitors” (Eur J Med Chem, 2015).
# Tests used:
# [1] = target: T1, Epidermal growth factor receptor (Homo sapiens, UniProt P00533); assay: Inhibition of EGFR (unknown origin) using Poly(Glu:Tyr) 4:1 as substrate after 12 to 16 hrs
# [2] = target: T1, Epidermal growth factor receptor; assay: Inhibition of EGFR (unknown origin) by Z'-LYTE assay
# [3] = target: T1, Epidermal growth factor receptor; assay: Inhibition of EGFR (unknown origin) after 40 mins by scintillation proximity assay
# T1 sequence (P00533 whole entry): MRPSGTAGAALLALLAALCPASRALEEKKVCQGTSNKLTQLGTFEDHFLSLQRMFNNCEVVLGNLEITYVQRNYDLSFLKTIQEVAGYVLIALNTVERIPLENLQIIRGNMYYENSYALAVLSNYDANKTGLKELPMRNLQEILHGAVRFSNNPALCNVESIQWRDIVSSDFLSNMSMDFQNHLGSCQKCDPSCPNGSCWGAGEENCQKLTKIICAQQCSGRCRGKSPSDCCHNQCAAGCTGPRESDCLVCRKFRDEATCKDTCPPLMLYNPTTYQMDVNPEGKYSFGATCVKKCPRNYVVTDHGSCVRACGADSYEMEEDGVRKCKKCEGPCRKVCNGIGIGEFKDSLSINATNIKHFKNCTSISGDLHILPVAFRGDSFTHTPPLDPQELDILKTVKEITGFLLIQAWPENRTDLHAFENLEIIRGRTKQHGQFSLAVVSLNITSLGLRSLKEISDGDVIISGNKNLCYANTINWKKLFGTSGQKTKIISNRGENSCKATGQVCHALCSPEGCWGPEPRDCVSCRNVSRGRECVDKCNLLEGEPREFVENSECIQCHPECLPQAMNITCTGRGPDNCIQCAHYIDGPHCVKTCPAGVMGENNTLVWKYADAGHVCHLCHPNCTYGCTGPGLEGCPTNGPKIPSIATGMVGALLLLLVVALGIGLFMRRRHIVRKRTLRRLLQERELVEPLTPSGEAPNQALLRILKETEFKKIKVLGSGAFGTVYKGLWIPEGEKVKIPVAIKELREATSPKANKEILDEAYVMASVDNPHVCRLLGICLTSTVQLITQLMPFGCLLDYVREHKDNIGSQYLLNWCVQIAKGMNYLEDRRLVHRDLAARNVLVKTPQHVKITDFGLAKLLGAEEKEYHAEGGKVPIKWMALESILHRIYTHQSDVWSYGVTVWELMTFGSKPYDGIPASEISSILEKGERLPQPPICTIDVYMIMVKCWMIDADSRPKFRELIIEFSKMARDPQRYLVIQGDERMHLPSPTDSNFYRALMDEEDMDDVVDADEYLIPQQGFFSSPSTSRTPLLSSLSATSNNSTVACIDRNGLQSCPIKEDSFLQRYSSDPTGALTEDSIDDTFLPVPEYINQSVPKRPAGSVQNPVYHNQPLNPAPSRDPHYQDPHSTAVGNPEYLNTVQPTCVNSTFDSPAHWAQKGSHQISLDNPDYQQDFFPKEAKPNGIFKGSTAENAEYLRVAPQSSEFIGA
Structure (SMILES),IC50 [2],further results
OC[C@@H](Nc1ncnc2sc(-c3ccc(CN4CCNCC4)cc3)cc12)c1ccccc1,,IC50 [1]: 600 nM
C[C@@H](Nc1ncnc2sc(Br)cc12)c1ccccn1,2080 nM,
Brc1cc2c(NCc3ccccc3)ncnc2s1,241 nM,
COc1ccccc1-c1cc2c(NCc3cccs3)ncnc2s1,170 nM,
COC[C@H](Nc1ncnc2sc(Br)cc12)c1ccccc1,> 10000 nM,
Brc1cc2c(NCc3ccncc3)ncnc2s1,3880 nM,
Brc1cc2c(NCc3cccs3)ncnc2s1,1370 nM,
COc1ccccc1-c1cc2c(Nc3ccc(F)c(Cl)c3)ncnc2s1,5 nM,
Brc1cc2c(Nc3cccc(OCc4ccccc4)c3)ncnc2s1,> 10000 nM,
OC[C@@H](Nc1ncnc2sc(Br)cc12)c1ccccc1,36 nM,
C#Cc1cccc(Nc2ncnc3sc(Br)cc23)c1,23 nM,
COc1ccccc1-c1cc2c(NCc3ccncc3)ncnc2s1,108 nM,
COc1ccccc1-c1cc2c(N[C@@H](CO)c3ccccc3)ncnc2s1,629 nM,
C[C@@H](Nc1ncnc2sc(Br)cc12)c1ccccc1,38 nM,
COc1ccccc1-c1cc2c(N[C@H](CO)c3ccccc3)ncnc2s1,1 nM,
COc1ccccc1-c1cc2c(NCc3ccccn3)ncnc2s1,183 nM,
Fc1cccc(COc2ccc(Nc3ncnc4sc(C#CC5CCCN5)cc34)cc2Cl)c1 (centres undefined),,IC50 [3]: 109 nM
CC(Nc1ncnc2sc(Br)cc12)c1ccccc1 (racemic),156 nM,
O=C(c1ccc(-c2cc3c(N[C@H](CO)c4ccccc4)ncnc3s2)cc1)N1CCN(CCO)CC1,,IC50 [1]: > 5000 nM
Brc1cc2c(Nc3ccccc3)ncnc2s1,80 nM,
COc1ccccc1-c1cc2c(NCc3ccccc3)ncnc2s1,17 nM,
COc1ccccc1-c1cc2c(NC(C)c3ccccc3)ncnc2s1 (racemic),19 nM,
OCCN1CCN(Cc2ccc(-c3cc4c(N[C@H](CO)c5ccccc5)ncnc4s3)cc2)CC1,,IC50 [1]: 600 nM
Fc1cccc(COc2ccc(Nc3ncnc4sc(Br)cc34)cc2Cl)c1,257 nM,
C[C@@H](Nc1ncnc2sc(Br)cc12)c1ccc(F)cc1,150 nM,
COc1ccccc1-c1cc2c(Nc3ccccc3)ncnc2s1,173 nM,
C[C@H](Nc1ncnc2sc(Br)cc12)c1ccccc1,> 10000 nM,
COC[C@@H](Nc1ncnc2sc(-c3ccccc3OC)cc12)c1ccccc1,23 nM,
Brc1cc2c(NCc3ccccn3)ncnc2s1,7900 nM,
Fc1ccc(Nc2ncnc3sc(Br)cc23)cc1Cl,53 nM,

# More lines, main results first:
IC50 [2],Structure (SMILES),further results
9 nM,COc1ccccc1-c1cc2c(N[C@H](C)c3ccccc3)ncnc2s1,
18 nM,C#Cc1cccc(Nc2ncnc3sc(-c4ccccc4OC)cc23)c1,
> 10000 nM,Brc1cc2c(NCc3cccnc3)ncnc2s1,
262 nM,COC[C@@H](Nc1ncnc2sc(Br)cc12)c1ccccc1,
183 nM,CC[C@@H](Nc1ncnc2sc(Br)cc12)c1ccccc1,
415 nM,C[C@@H](Nc1ncnc2sc(Br)cc12)c1cccs1,
27 nM,COc1ccccc1-c1cc2c(N[C@H](C)c3ccc(F)cc3)ncnc2s1,
8 nM,COc1ccccc1-c1cc2c(NC(CO)c3ccccc3)ncnc2s1 (racemic),
1860 nM,COc1ccccc1-c1cc2c(N[C@@H](C)c3ccccc3)ncnc2s1,
153 nM,COc1ccccc1-c1cc2c(N[C@H](C)c3ccccn3)ncnc2s1,
83 nM,OCC(Nc1ncnc2sc(Br)cc12)c1ccccc1 (racemic),
55 nM,COc1ccccc1-c1cc2c(N[C@H](C)c3cccs3)ncnc2s1,
> 10000 nM,OC[C@H](Nc1ncnc2sc(Br)cc12)c1ccccc1,
275 nM,COc1ccccc1-c1cc2c(NCc3cccnc3)ncnc2s1,
